Assay results taken from the supplement of paper PMC10307832.

Experiments:
Assay in all cases: relative viability (nuclei count vs DMSO), 5 days (fraction); higher = more cells survive
[1] = compound: C1CSC2=C(C(=O)N1)SC3=C2C=C(C=C3)O [kb NB 142-70] + Nc1ncn([C@H]2C[C@H](O)[C@@H](CO)O2)c(=O)n1 [Decitabine] (partner 2 µM)
Outline: (§1)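 Nuclei were stained with Hoechst during a one-step fixation (final 0.05% Triton X-100, 1% formaldehyde, 1 ug/ml Hoechst) carried out 5 days after dosing, then counted on 4× images. The cells, lung cancer lines in 1536-well plates, had been dosed by pin tool the day after seeding with one drug alone or a fixed anchor-drug dose plus five library-drug doses (not always all listed) in √10 steps. Relative viability is the nuclei count in treated wells divided by that in vehicle wells, and each value is the median of duplicate plates.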

[2] = compound: NCC(=O)Nc1ccc(-n2nc(C(F)(F)F)cc2-c2ccc3c(ccc4ccccc43)c2)cc1 + C[C@@H](Oc1cc(-c2cnn(C3CCNCC3)c2)cnc1N)c1c(Cl)ccc(F)c1Cl [Crizotinib] (partner 1 µM)
Outline: as §1

[3] = compound: NCC(=O)Nc1ccc(-n2nc(C(F)(F)F)cc2-c2ccc3c(ccc4ccccc43)c2)cc1 + COc1cccc2cc(-c3nc([C@H]4CC[C@H](C(=O)O)CC4)n4ncnc(N)c34)[nH]c12 [OSI-027] (partner 0.5 µM)
Outline: as §1

[4] = compound: NCC(=O)Nc1ccc(-n2nc(C(F)(F)F)cc2-c2ccc3c(ccc4ccccc43)c2)cc1 + O=C(c1cc(Cc2n[nH]c(=O)c3ccccc23)ccc1F)N1CCN(C(=O)C2CC2)CC1 [Olaparib] (partner 8 µM)
Outline: as §1

Row | Cell Line | relative viability ([1]; first compound 0.1 µM) | relative viability ([1]; first compound 1 µM) | relative viability ([1]; first compound 3.162 µM) | relative viability ([2]; first compound 0.02 µM) | relative viability ([2]; first compound 0.06325 µM) | relative viability ([2]; first compound 0.2 µM) | relative viability ([2]; first compound 0.6325 µM) | relative viability ([2]; first compound 2 µM) | relative viability ([3]; first compound 0.02 µM) | relative viability ([3]; first compound 0.06325 µM) | relative viability ([3]; first compound 0.2 µM) | relative viability ([3]; first compound 0.6325 µM) | relative viability ([3]; first compound 2 µM) | relative viability ([4]; first compound 0.02 µM) | relative viability ([4]; first compound 0.06325 µM) | relative viability ([4]; first compound 0.2 µM) | relative viability ([4]; first compound 0.6325 µM) | relative viability ([4]; first compound 2 µM)
1 | NCI-H2405 | 0.727 | 0.783 | 0.648 | 0.916 | 0.927 | 0.914 | 0.847 | 0.881 | 0.634 | 0.646 | 0.699 | 0.642 | 0.689 | 0.873 | 0.89 | 0.863 | 0.857 | 0.919
2 | LCLC-97TM1 | 0.268 | 0.205 | 0.135 | 0.344 | 0.34 | – | 0.348 | 0.29 | 0.656 | 0.567 | 0.503 | 0.625 | 0.606 | 0.538 | 0.421 | 0.317 | 0.409 | 0.364
3 | NCI-H596 | 0.909 | 1.09 | 0.766 | 1 | 1.12 | 1.01 | 1.05 | 0.943 | 0.731 | 0.865 | 0.83 | 0.727 | 0.799 | 0.627 | 0.77 | 0.739 | 0.714 | 0.658
4 | NCI-H727 | 0.915 | 0.868 | 0.768 | 1.03 | 0.816 | 0.897 | 0.787 | 0.899 | 0.533 | 0.504 | 0.579 | 0.694 | 0.737 | 0.504 | 0.801 | 0.754 | 0.666 | 0.583
5 | H3255 | 0.623 | 0.591 | 0.629 | 0.936 | 0.846 | 0.884 | 0.806 | 0.894 | 0.557 | 0.617 | 0.629 | 0.667 | 0.596 | 0.593 | 0.593 | 0.577 | 0.607 | 0.622
6 | SK-MES-1 | 0.466 | 0.338 | 0.22 | 1.04 | 0.994 | 1.04 | 0.979 | 1.03 | 0.677 | 0.575 | 0.622 | 0.616 | 0.646 | 0.773 | 0.727 | 0.84 | 0.775 | 0.706
